Measured values published in patent US11254663B2 (BRISTOL-MYERS SQUIBB COMPANY, priority 2019, dated 2022).
pEC50: −log10 of the molar value.

target: FXR (Homo sapiens (Human), UniProt Q96RI1); test: FXR EC50 (FXR agonist potency reported with each Example); type: cell-based
Sequence (Q96RI1 262-486): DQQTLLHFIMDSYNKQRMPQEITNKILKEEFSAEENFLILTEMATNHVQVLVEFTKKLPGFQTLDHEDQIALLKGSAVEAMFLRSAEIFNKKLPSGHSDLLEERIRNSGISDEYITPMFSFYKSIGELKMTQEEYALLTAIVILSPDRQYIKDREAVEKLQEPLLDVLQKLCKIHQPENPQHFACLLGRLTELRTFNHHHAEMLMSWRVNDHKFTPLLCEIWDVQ

SMILES	pEC50
COCc1coc(-c2cccc(N(CC34CCC(c5nc(C6CC6)no5)(CC3)CC4)C(=O)C34CC(F)(C3)C4)c2)n1 [Example 85, N-((4-(3-cyclopropyl-1,2,4-oxadiazol-5-yl)bicyclo[2.2.2]octan-1-yl)methyl)-3-fluoro-N-(3-(4-(methoxymethyl)oxazol-2-yl)phenyl)bicyclo[1.1.1]pentane-1-carboxamide]	6.86
N#CC1(c2ccc(C34CCC(CN(C(=O)C56CC(F)(C5)C6)c5cccc(-c6nc(C7CC7)no6)c5)(CC3)CO4)cc2)CC1 [Example 143, N-((1-(4-(1-cyanocyclopropyl)phenyl)-2-oxabicyclo[2.2.2]octan-4-yl)methyl)-N-(3-(3-cyclopropyl-1,2,4-oxadiazol-5-yl)phenyl)-3-fluorobicyclo[1.1.1]pentane-1-carboxamide]	7.05
CC(C)(C)c1noc(C23CCC(CN(C(=O)C45CC(F)(C4)C5)c4cccc(-c5noc(C6CC6)n5)c4)(CC2)CC3)n1 [Example 171, N-((4-(3-(tert-butyl)-1,2,4-oxadiazol-5-yl)bicyclo[2.2.2]octan-1-yl)methyl)-N-(3-(5-cyclopropyl-1,2,4-oxadiazol-3-yl)phenyl)-3-fluorobicyclo[1.1.1]pentane-1-carboxamide]	7.43
CO[C@H]1C[C@@H](C(=O)N(CC23CCC(c4nc(C(C)(C)C)no4)(CC2)CC3)c2cccc(-c3nc(C4CC4)no3)c2)C1 [Example 192, (1S,3S)—N-((4-(3-(tert-butyl)-1,2,4-oxadiazol-5-yl)bicyclo[2.2.2]octan-1-yl)methyl)-N-(3-(3-cyclopropyl-1,2,4-oxadiazol-5-yl)phenyl)-3-methoxycyclobutane-1-carboxamide]	6.35
O=C(N(CC12CCC(c3nc(C4CC4)no3)(CC1)CC2)c1cccc(-c2cnn(S(=O)(=O)C3CC3)c2)c1)C12CC(F)(C1)C2 [Example 158, N-((4-(3-cyclopropyl-1,2,4-oxadiazol-5-yl)bicyclo[2.2.2]octan-1-yl)methyl)-N-(3-(1-(cyclopropylsulfonyl)-1H-pyrazol-4-yl)phenyl)-3-fluorobicyclo[1.1.1]pentane-1-carboxamide]	7.37
O=C(N(CC12CCC(c3noc(C4(C(F)(F)F)CC4)n3)(CC1)CC2)c1cccc(-c2nc(C3CC3)no2)c1)C12CC(F)(C1)C2 [Example 118, N-(3-(3-cyclopropyl-1,2,4-oxadiazol-5-yl)phenyl)-3-fluoro-N-((4-(5-(1-(trifluoromethyl)cyclopropyl)-1,2,4-oxadiazol-3-yl)bicyclo[2.2.2]octan-1-yl)methyl) bicyclo[1.1.1]pentane-1-carboxamide]	7.52
O=C(N(CC12CCC(c3nc(C4CC4)no3)(CC1)OC2)c1cccc(-c2cc(C3CC3)on2)c1)C12CC(F)(C1)C2 [Example 199, N-((1-(3-cyclopropyl-1,2,4-oxadiazol-5-yl)-2-oxabicyclo[2.2.2]octan-4-yl)methyl)-N-(3-(5-cyclopropylisoxazol-3-yl)phenyl)-3-fluorobicyclo[1.1.1]pentane-1-carboxamide]	6.55
CC(C)(O)c1coc(-c2cccc(N(CC34CCC(c5nc(C6CC6)no5)(CC3)CC4)C(=O)C34CC(F)(C3)C4)c2)n1 [Example 15, N-((4-(3-cyclopropyl-1,2,4-oxadiazol-5-yl)bicyclo[2.2.2]octan-1-yl)methyl)-3-fluoro-N-(3-(4-(2-hydroxypropan-2-yl)oxazol-2-yl)phenyl)bicyclo[1.1.1]pentane-1-carboxamide]	7.06
Cn1nc(C2CC2)cc1C12CCC(CN(C(=O)C34CC(F)(C3)C4)c3cccc(-c4noc(C(F)F)n4)c3)(CC1)CC2 [Example 164, N-((4-(3-cyclopropyl-1-methyl-1H-pyrazol-5-yl)bicyclo[2.2.2]octan-1-yl)methyl)-N-(3-(5-(difluoromethyl)-1,2,4-oxadiazol-3-yl)phenyl)-3-fluorobicyclo[1.1.1]pentane-1-carboxamide]	6.98
O=C(N(CC12CCC(c3noc(C4(C(F)(F)F)CC4)n3)(CC1)CC2)c1cccc(-c2cn[nH]c2)c1)C12CC(F)(C1)C2 [Example 209, N-(3-(1H-pyrazol-4-yl)phenyl)-3-fluoro-N-((4-(5-(1-(trifluoromethyl)cyclopropyl)-1,2,4-oxadiazol-3-yl)bicyclo[2.2.2]octan-1-yl)methyl)bicyclo[1.1.1]pentane-1-carboxamide]	6.82
O=C(C1CC(F)(F)C1)N(CC12CCC(c3cc(C(F)(F)F)ccn3)(CC1)CC2)c1cccc(-c2nc(C3CC3)no2)c1 [Example 49, N-(3-(3-cyclopropyl-1,2,4-oxadiazol-5-yl)phenyl)-3,3-difluoro-N-((4-(4-(trifluoromethyl)pyridin-2-yl)bicyclo[2.2.2]octan-1-yl)methyl)cyclobutane-1-carboxamide]	5.86
CC(C)(C)c1nc(-c2cccc(N(CC34CCC(c5ccc(C(F)(F)F)cn5)(CC3)CC4)C(=O)C34CC(F)(C3)C4)c2)no1 [Example 188, N-(3-(5-(tert-butyl)-1,2,4-oxadiazol-3-yl)phenyl)-3-fluoro-N-((4-(5-(trifluoromethyl)pyridin-2-yl)bicyclo[2.2.2]octan-1-yl)methyl)bicyclo[1.1.1]pentane-1-carboxamide]	6.52
CCc1noc(-c2cccc(N(CC34CCC(c5ccc(C(C)(C)C#N)cc5)(CC3)OC4)C(=O)C3CCC3)c2)n1 [Example 48, N-((1-(4-(2-cyanopropan-2-yl)phenyl)-2-oxabicyclo[2.2.2]octan-4-yl)methyl)-N-(3-(3-ethyl-1,2,4-oxadiazol-5-yl)phenyl)cyclobutanecarboxamide]	6.52
CC(F)(F)c1nc(-c2cccc(N(CC34CCC(c5nc(C6CC6)no5)(CC3)CC4)C(=O)C34CC(F)(C3)C4)c2)no1 [Example 112, N-((4-(3-cyclopropyl-1,2,4-oxadiazol-5-yl)bicyclo[2.2.2]octan-1-yl)methyl)-N-(3-(5-(1,1-difluoroethyl)-1,2,4-oxadiazol-3-yl)phenyl)-3-fluorobicyclo[1.1.1]pentane-1-carboxamide]	7.17
O=C(C1CC(F)(F)C1)N(CC12CCC(c3nc(CC4CC4)no3)(CC1)CC2)c1cccc(-c2nc(CC3CC3)no2)c1 [Example 63, N-((4-(3-(cyclopropylmethyl)-1,2,4-oxadiazol-5-yl)bicyclo[2.2.2]octan-1-yl)methyl)-N-(3-(3-(cyclopropylmethyl)-1,2,4-oxadiazol-5-yl)phenyl)-3,3-difluorocyclobutane-1-carboxamide]	6.25
CCOc1ncc(-c2cccc(N(CC34CCC(c5nc(C6CC6)no5)(CC3)CC4)C(=O)C34CC(F)(C3)C4)c2)o1 [Example 7, N-((4-(3-cyclopropyl-1,2,4-oxadiazol-5-yl)bicyclo[2.2.2]octan-1-yl)methyl)-N-(3-(2-ethoxyoxazol-5-yl)phenyl)-3-fluorobicyclo[1.1.1]pentane-1-carboxamide]	7.66
CCn1cc(-c2cccc(N(CC34CCC(c5nc(C6CC6)no5)(CC3)CC4)C(=O)C3CC(F)(F)C3)c2)oc1=O [Example 81, N-((4-(3-cyclopropyl-1,2,4-oxadiazol-5-yl)bicyclo[2.2.2]octan-1-yl)methyl)-N-(3-(3-ethyl-2-oxo-2,3-dihydrooxazol-5-yl)phenyl)-3,3-difluorocyclobutane-1-carboxamide]	6.02
